Experimental data as given in patent US20180318263A1 (The Regents of the University of Colorado, a body corporate, priority 2016, published 2018).
Entries after “also recorded” stand apart in the source; their conditions may differ.

Columns and labels:
LNCaP-Enza-Res cells = assay: growth of enzalutamide-resistant LNCaP cells (MTS); type: cell-based, human; conditions: for growth of enzalutamide-resistant LNCaP cells versus parental: single fat oxidation inhibitor, 48 hours
Excerpt: FIG. 16 is a set of four graphs split over two pages. […] Data is normalized to the vehicle treatment (no drugs). […] Data is normalized to the vehicle treatment (no drugs). […] Data is normalized to the vehicle treatment (no drugs). […] Data is normalized to the vehicle treatment (no drugs).
FIG. 17 is a pair of graphs showing the effects of treatment on the indicated cells. […] Data is normalized to the vehicle treatment (no drugs). […] Both concentrations are in microMolar (μM).
(§1) Parental LNCaP and VCaP cells treated with vehicle were used as their corresponding controls.

LNCaP CPT1A-KD clones = assay: growth of LNCaP CPT1A-KD clones with enzalutamide; type: cell-based, human; conditions: enzalutamide (MDV3100) versus control clone
Experimental: (C) Relative growth of LNCaP-KD clones compared to control (NTshRNA) with Enza treatment. *p<0.001, compared to control treatment. ap<0.01 compared to control clone. (NTshRNA—left; CPT1Ash1—center; and CPT1 Ash2 at each timepoint for FIGS. 6A and 6B.)
Data is normalized to the vehicle (0 μM, no drug) treatment. Data represents mean±SD.
Etomoxir targets CPT1. […] It is possible that the decrease in AR observed with etomoxir is due to off-targets effects of the drug (besides CPT1), and/or the cells may need to be studied at earlier time points when apoptotic and ER stress mechanisms have not been set in motion.

TRAMPC1 cells = assay: mouse TRAMPC1 cell growth / clonogenic assay; type: cell-based; conditions: for sensitivity to each drug treatment alone: TRAMPC1, enzalutamide (5 μM); for sensitivity of mouse prostate cancer cells: FIG. 12
Excerpt: FIG. 10 is an image and a graph showing mouse TRAMPC1 cell growth assay. […] Representative crystal violet stains are shown above graph.
These cells are important model because they can be placed in syngeneic C57B1 mice with a complete immune system.
This cell line from mouse PCa allows the evaluation of treatments in vivo, using immune-competent […] mice, which are syngenic with the TRAMPC1 cells.

[1] = system: enzalutamide-resistant PCa cells; assay: colony formation of enzalutamide-resistant versus parental PCa cells; type: cell-based
Excerpt: Colony formation was examined after 2 weeks by crystal violet stain and analyzed with image J.

mTOR = assay: ceramides and mTOR signaling after etomoxir; type: cell-based
Excerpt: (§2) (E) Stain of xenografts slices with phospho-4EBP1 antibody. (F) Western blot of LNCaP cells treated with vehicle (“V”) or etomoxir (“E”), C-Casp3=cleaved-caspase 3. (G) Putative diagram of mTOR signaling pathway.

androgen receptor (AR) = assay: AR gene expression and Western blot in LNCaP cells; type: cell-based, human; conditions: etomoxir 48 hours, p<0.05
Experimental: (A) Relative AR gene expression after vehicle (“V”) or etomoxir (“E”) treatment in LNCaP cells. ARfl=full length AR; ARv7=AR variant 7; AR total=all AR isoforms; PSA=prostate specific antigen; NKX3.1=Homeodomain-containing transcription factor regulated by androgens. […] (B) Western blot of full length AR and ARV7 variant in LNCaP cells treated with etomoxir for 48 hours.

BPH-1 and WPMY-1 cells = assay: viability of benign prostate cells with etomoxir; type: cell-based; conditions: etomoxir 75 μM
Excerpt: as §2

PCa cells = assay: 14C-lipid oxidation in PCa cells; type: cell-based
PCa cell lines = assay: growth/viability of PCa cell lines with etomoxir; type: cell-based, human; conditions: etomoxir (75 μM in FIG. 2D), p<0.01
Excerpt: as §2

primary PCa cells = primary PCa cells derived from prostatectomies treated with etomoxir; type: cell-based, human; conditions: data not shown
Excerpt: The effects of etomoxir in primary PCa cells derived from prostatectomies carried out at University of Colorado hospital were examined.

VCaP tumor = assay: VCaP xenograft tumor growth in mice treated with etomoxir; type: in vivo; conditions: VCaP xenografts, etomoxir 40 mg/kg/day for 21 days, p<0.05
Excerpt: as §2

LNCaP cells = assay: ER stress markers in etomoxir-treated LNCaP cells; type: cell-based, human
Excerpt: (C) Phosphorylation of the α-subunit of the translation initiation factor eIF2 (p-eIF2a) and expression of LC3 cleavage marker of autophagy. (D) Agarose gel showing the spliced (activated, 447 bp) XBP1 factor that regulates the response to ER stress.

VCaP-Enza-Res cells = assay: growth of enzalutamide-resistant VCaP cells; type: cell-based, human; conditions: single fat oxidation inhibitor, 48 hours
Excerpt: as §1

[2] = system: tumors of human cells resistant to enzalutamide; assay: enzalutamide-resistant human tumors in nude mice treated with ranolazine; type: in vivo; conditions: injections started on day 5

CNC(=O)c1ccc(N2C(=S)N(c3ccc(C#N)c(C(F)(F)F)c3)C(=O)C2(C)C)cc1F [enzalutamide]
growth in the presence of enzalutamide (LNCaP-Enza-Res cells; LNCaP-enzalutamide resistant cells versus parental, p<0.001): can grow in the presence of enzalutamide
cell growth of CPT1A-deficient LNCaP clones (LNCaP CPT1A-KD clones): more sensitive to enzalutamide treatment; also recorded: synergistic effect on cell growth
sensitivity to each drug treatment alone (TRAMPC1 cells): not very sensitive
growth in the presence of enzalutamide compared to parental controls [1]: grow better in the presence of enzalutamide

CCOC(=O)[C@@]1(CCCCCCOc2ccc(Cl)cc2)CO1 [etomoxir]
mTOR and downstream effectors S6K and 4EBP-1 (mTOR; etomoxir treatment): decreased mTOR and its downstream effectors S6K and 4EBP-1
palmitate-containing ceramides (mTOR; etomoxir treatment (not shown)): increased palmitate-containing ceramides
expression of androgen receptor (AR) and its variant forms (androgen receptor (AR)): significant decrease
growth effect in benign cells (BPH-1 and WPMY-1 cells): not seen
14C-lipid oxidation (PCa cells): able to block 14C-lipid oxidation
sensitivity of mouse prostate cancer cells (TRAMPC1 cells): sensitive
growth / viability of PCa cells (PCa cell lines): decrease their growth and died
growth / viability of PCa cells (PCa cell lines; listed as Etomoxir): decreases the viability
glucose uptake (primary PCa cells): momentary increase in glucose uptake
viability compared to matched non-cancerous cells (primary PCa cells): concomitant decrease in viability
tumor growth (VCaP tumor): Decreased VCaP tumor growth; also recorded: also observed
autophagy markers (LC3) (LNCaP cells): increase in autophagy markers (LC3)
markers of ER stress (LNCaP cells; ATF4, GADD34, GRP78, CHOP, p<0.001): increase in markers of ER stress

C1CCC(C(CC2CCCCN2)C2CCCCC2)CC1 (stereo not shown) [perhexiline]
sensitivity of mouse prostate cancer cells (TRAMPC1 cells): sensitive

COc1ccccc1OCC(O)CN1CCN(CC(=O)Nc2c(C)cccc2C)CC1 (stereo not shown) [ranolazine]
growth of enzalutamide-resistant LNCaP cells versus parental (LNCaP-Enza-Res cells): more sensitive to ranolazine than their corresponding parental controls
growth of enzalutamide-resistant LNCaP cells versus parental (LNCaP-Enza-Res cells; listed as Ranolazine): inhibits growth
growth of enzalutamide-resistant VCaP cells versus parental (VCaP-Enza-Res cells): more sensitive to ranolazine than their corresponding parental controls
growth of enzalutamide-resistant VCaP cells versus parental (VCaP-Enza-Res cells; listed as Ranolazine): inhibits growth
sensitivity of mouse prostate cancer cells (TRAMPC1 cells): sensitive
sensitivity to each drug treatment alone (TRAMPC1 cells): not very sensitive
sensitivity of enzalutamide-resistant tumors [2]: show signs of sensitivity
